Laboratory results: ChEMBL document CHEMBL3259601, “Synthesis of novel 1,2,3-triazole substituted-N-alkyl/aryl nitrone derivatives, their anti-inflammatory and anticancer activity” (Eur J Med Chem, 2014)

Columns and labels:
A549 = assay: Cytotoxicity against human A549 cells assessed as growth inhibition after 24 hrs by MTT assay; format: functional, cell-based; settings: A549, 24 h
MDA-MB-231 = assay: Cytotoxicity against human MDA-MB-231 cells assessed as growth inhibition after 24 hrs by MTT assay; format: functional, cell-based; settings: MDA-MB-231, 24 h
THP-1 = assay: Cytotoxicity against human THP1 cells assessed as effect on cell viability at 20 uM after 48 hrs by trypan blue exclusion assay; format: cell-based; settings: thp-1, 48 h
[1] = Antiinflammatory activity in human THP1 cells assessed as inhibition of PMA-induced IL-1beta secretion preincubated for 2 hrs followed by PMA challenge measured after 48 hrs by ELISA; format: functional, cell-based; settings: THP-1
PC-3 [2] = assay: Cytotoxicity against human PC3 cells assessed as growth inhibition after 24 hrs by MTT assay; format: functional, cell-based; settings: PC-3, 24 h
COLO 205 = assay: Cytotoxicity against human COLO205 cells assessed as growth inhibition after 24 hrs by MTT assay; format: functional, cell-based; settings: COLO 205, 24 h
PC-3 [3] = assay: Induction of apoptosis in human PC3 cells assessed as activation of caspase-3 using AFC conjugated Ac-DEVD as substrate measured per mg of protein at 2 uM after 36 hrs by fluorescence assay (reference value: 2192.3 +/- 115.9 FU/min); format: functional
PC-3 [4] = assay: Induction of apoptosis in human PC3 cells assessed as activation of caspase-3 using AFC conjugated Ac-DEVD as substrate measured per mg of protein at 2 uM after 12 hrs by fluorescence assay (reference value: 1055.6 +/- 108.2 FU/min); format: functional
PC-3 [5] = assay: Induction of apoptosis in human PC3 cells assessed as activation of caspase-3 using AFC conjugated Ac-DEVD as substrate measured per mg of protein at 2 uM after 48 hrs by fluorescence assay (reference value: 2642.4 +/- 37.5 FU/min); format: functional
PC-3 [6] = assay: Induction of apoptosis in human PC3 cells assessed as activation of caspase-3 using AFC conjugated Ac-DEVD as substrate measured per mg of protein at 1 uM after 36 hrs by fluorescence assay (reference value: 2192.3 +/- 115.9 FU/min); format: functional
PC-3 [7] = assay: Induction of apoptosis in human PC3 cells assessed as activation of caspase-3 using AFC conjugated Ac-DEVD as substrate measured per mg of protein at 1 uM after 12 hrs by fluorescence assay (reference value: 1055.6 +/- 108.2 FU/min); format: functional
PC-3 [8] = assay: Induction of apoptosis in human PC3 cells assessed as activation of caspase-3 using AFC conjugated Ac-DEVD as substrate measured per mg of protein at 1 uM after 24 hrs by fluorescence assay (reference value: 2115.3 +/- 83.2 FU/min); format: functional
PC-3 [9] = assay: Induction of apoptosis in human PC3 cells assessed as activation of caspase-3 using AFC conjugated Ac-DEVD as substrate measured per mg of protein at 1 uM after 48 hrs by fluorescence assay (reference value: 2642.4 +/- 37.5 FU/min); format: functional
PC-3 [10] = assay: Induction of apoptosis in human PC3 cells assessed as activation of caspase-3 using AFC conjugated Ac-DEVD as substrate measured per mg of protein measured per mg of protein at 2 uM after 24 hrs by fluorescence assay (reference value: 2115.3 +/- 83.2 FU/min); format: functional
PC-3 [11] = assay: Induction of apoptosis in human PC3 cells assessed as activation of caspase-3 using AFC conjugated Ac-DEVD as substrate measured per mg of protein at 10 uM after 12 hrs by fluorescence assay (reference value: 1055.6 +/- 108.2 FU/min); format: functional
PC-3 [12] = assay: Induction of apoptosis in human PC3 cells assessed as activation of caspase-3 using AFC conjugated Ac-DEVD as substrate measured per mg of protein at 8 uM after 12 hrs by fluorescence assay (reference value: 1055.6 +/- 108.2 FU/min); format: functional
PC-3 [13] = assay: Induction of apoptosis in human PC3 cells assessed as activation of caspase-3 using AFC conjugated Ac-DEVD as substrate measured per mg of protein at 8 uM after 36 hrs by fluorescence assay (reference value: 2192.3 +/- 115.9 FU/min); format: functional
PC-3 [14] = assay: Induction of apoptosis in human PC3 cells assessed as activation of caspase-3 using AFC conjugated Ac-DEVD as substrate measured per mg of protein at 10 uM after 36 hrs by fluorescence assay (reference value: 2192.3 +/- 115.9 FU/min); format: functional
PC-3 [15] = assay: Induction of apoptosis in human PC3 cells assessed as activation of caspase-3 using AFC conjugated Ac-DEVD as substrate measured per mg of protein at 10 uM after 24 hrs by fluorescence assay (reference value: 2115.3 +/- 83.2 FU/min); format: functional
PC-3 [16] = assay: Induction of apoptosis in human PC3 cells assessed as activation of caspase-3 using AFC conjugated Ac-DEVD as substrate measured per mg of protein at 8 uM after 48 hrs by fluorescence assay (reference value: 2642.4 +/- 37.5 FU/min); format: functional
PC-3 [17] = assay: Induction of apoptosis in human PC3 cells assessed as activation of caspase-3 using AFC conjugated Ac-DEVD as substrate measured per mg of protein at 8 uM after 24 hrs by fluorescence assay (reference value: 2115.3 +/- 83.2 FU/min); format: functional
PC-3 [18] = assay: Induction of apoptosis in human PC3 cells assessed as activation of caspase-3 using AFC conjugated Ac-DEVD as substrate measured per mg of protein at 10 uM after 48 hrs by fluorescence assay (reference value: 2642.4 +/- 37.5 FU/min); format: functional

SMILES	IC50 (A549) [µM]	IC50 (MDA-MB-231) [µM]	Activity (THP-1)	IC50 [1] [µM]	IC50 (PC-3 [2]) [µM]	IC50 (COLO 205) [µM]	other results
CCCCCCCCCCn1cc(/C=[N+](\[O-])Cc2ccccc2)nn1	> 100	> 100	Non-toxic	15.6	> 100	> 100	–
[O-]/[N+](=C\c1cn(-c2ccc(F)cc2)nn1)Cc1ccccc1	> 100	> 100	Non-toxic	9.7	> 100	> 100	–
[O-]/[N+](=C\c1cn(-c2ccc(F)cc2)nn1)c1ccccc1	12.5	9.8	Non-toxic	> 20	11.4	10.2	–
CCCCCCCCCCn1cc(/C=[N+](\[O-])C(C)(C)C)nn1	24.8	20.8	Non-toxic	20	19.8	22.1	–
COc1ccc(-n2cc(/C=[N+](\[O-])Cc3ccccc3)nn2)cc1	> 100	> 100	Non-toxic	17.3	> 100	> 100	–
[O-]/[N+](=C\c1cn(CCC(F)(F)C(F)(F)C(F)(F)C(F)(F)C(F)(F)C(F)(F)F)nn1)Cc1ccccc1	> 100	> 100	Non-toxic	12.1	> 100	> 100	–
CCCCCCCCn1cc(/C=[N+](\[O-])C(C)(C)C)nn1	31.3	29.7	Non-toxic	7.9	24.6	30.8	–
CC(C)(C)/[N+]([O-])=C/c1cn(CCC(F)(F)C(F)(F)C(F)(F)C(F)(F)C(F)(F)C(F)(F)F)nn1	11.5	9.8	Non-toxic	8.1	11.2	9.5	–
[O-]/[N+](=C\c1cn(-c2ccccc2)nn1)Cc1ccccc1	> 100	> 100	Non-toxic	8	–	> 100	–
CN1C(C(=O)Nc2ccccn2)=C(O)c2ccccc2S1(=O)=O [PIROXICAM]	–	–	–	18	–	–	–
CCCCCCCCn1cc(/C=[N+](\[O-])Cc2ccccc2)nn1	> 100	> 100	Non-toxic	13.1	> 100	> 100	–
COc1cccc2c1C(=O)c1c(O)c3c(c(O)c1C2=O)C[C@@](O)(C(=O)CO)C[C@@H]3O[C@H]1C[C@H](N)[C@H](O)[C@H](C)O1 [DOXORUBICIN]	–	–	–	–	0.6	–	Activity (PC-3 [3]): 4994.1 FU/min; Activity (PC-3 [4]): 3331.1 FU/min; Activity (PC-3 [5]): 7240.4 FU/min; Activity (PC-3 [6]): 4794.2 FU/min; Activity (PC-3 [7]): 3033.7 FU/min; Activity (PC-3 [8]): 3791.8 FU/min; Activity (PC-3 [9]): 6690.3 FU/min; Activity (PC-3 [10]): 4007.5 FU/min
[O-]/[N+](=C\c1cn(-c2ccccc2)nn1)c1ccccc1	> 100	> 100	Non-toxic	8.8	> 100	> 100	–
CC(C)(C)/[N+]([O-])=C/c1cn(-c2ccc(F)cc2)nn1	87	66.4	Non-toxic	14	72.1	58.9	–
CCCCCCCCCCn1cc(/C=[N+](\[O-])c2ccccc2)nn1	> 100	> 100	Non-toxic	9.9	> 100	> 100	–
[O-]/[N+](=C\c1cn(CCC(F)(F)C(F)(F)C(F)(F)C(F)(F)C(F)(F)C(F)(F)C(F)(F)C(F)(F)F)nn1)c1ccccc1	86.8	> 100	Non-toxic	11.7	–	> 100	–
CC(C)(C)/[N+]([O-])=C/c1cn(CCC(F)(F)C(F)(F)C(F)(F)C(F)(F)C(F)(F)C(F)(F)C(F)(F)C(F)(F)F)nn1	30.5	29.7	Non-toxic	15	25.7	28.8	–
[O-]/[N+](=C\c1cn(-c2ccc(Cl)cc2)nn1)c1ccccc1	10.5	8.9	Non-toxic	> 20	11.1	9.7	–
COc1ccc(-n2cc(/C=[N+](\[O-])C(C)(C)C)nn2)cc1	23.7	23.1	Non-toxic	13.5	23.8	19.8	–
CC(C)(C)/[N+]([O-])=C/c1cn(-c2ccc(C(F)(F)F)cc2)nn1	43.6	48.2	Non-toxic	14.4	42	44.7	–
[O-]/[N+](=C\c1cn(-c2ccc(C(F)(F)F)cc2)nn1)Cc1ccccc1	> 100	> 100	Non-toxic	15.4	> 100	> 100	–
[O-]/[N+](=C\c1cn(CCC(F)(F)C(F)(F)C(F)(F)C(F)(F)C(F)(F)C(F)(F)C(F)(F)C(F)(F)F)nn1)Cc1ccccc1	8.8	8.4	Non-toxic	17	8.1	9.4	Activity (PC-3 [11]): 2541.4 FU/min; Activity (PC-3 [12]): 2473.2 FU/min; Activity (PC-3 [13]): 3396.8 FU/min; Activity (PC-3 [14]): 4082.5 FU/min; Activity (PC-3 [15]): 3802.2 FU/min; Activity (PC-3 [16]): 4280.8 FU/min; Activity (PC-3 [17]): 3148.5 FU/min; Activity (PC-3 [18]): 4700.5 FU/min
CC(C)(C)/[N+]([O-])=C/c1cn(-c2ccccc2)nn1	17.4	14.8	Non-toxic	> 20	15.4	15.2	–
